Seven compounds from US11066379B2 (THE TEXAS A&M UNIVERSITY SYSTEM, priority 2018, dated 2021) can be followed below.

Data set [1] concerns the target T1, active human CypA protein (Homo sapiens, UniProt P62937).
T1 construct: Active human CypA full-length protein was from Abcam; purchased Abcam
In words: Binding to immobilized CypA by surface plasmon resonance (SPR). Conditions: for affinity for CypA (association curves, KD) / fold increase in KD toward CypA compared to gracilin A: SPR; for affinity for CypA (association curves, KD): various concentrations; for affinity for CypA (association curves, KD) / immunosuppressive activity (SAR profile, FIG. 2): in words; for immunosuppressive activity (SAR profile, FIG. 2): CypA binding / IL-2 inhibition. How it is done: Sensor surface activation and ligand immobilization were performed by using HBS-EP as running buffer at a flow rate of 5 μL/min and 25° C. CM5 sensor chips were used as surface where Cyp A or D was immobilized as ligand. The CM5 chip is a glass slide coated with a thin layer of gold with a matrix of carboxymethylated dextran covalently attached. The CM5 chip was activated using an amine coupling kit. […] After activation, the ligand, 100 μg/mL of active human CypA protein dissolved in sodium acetate 10 mM at pH 4.5 was added to be immobilized over a CM5 sensor chip. Finally ethanolamine-HCl was injected to deactivate the remaining active esters and to avoid non-specific binding. […] Once analytes were tested and interaction was observed, individual binding curves were analyzed by determining the kinetic constants of analytes-CypA binding, namely, the observed rate constant (Kobs), the association rate constant (Kass), the dissociation rate constant (Kdiss), and the kinetic equilibrium dissociation constant (KD). At equilibrium, by definition, […]. The pseudo-first order association rate constants Kobs (s^-1) were determined for each compound concentration by using the 1:1 Langmuir association model of BiaEvaluation software (BiaCore, Uppsala, Sweden). Then a representation of Kobs against the corresponding concentration of each compound was done. […] From the equation of these representations, Kass, M^-1 s^-1, gradient of the plot, and […]^-1, intercept of the plot was obtained. Within these two values, the kinetic equilibrium dissociation constant KD for each analyte-CypA binding was obtained. The duration of the sample injection was 2 min at 10 μL/min flow rate. Next, dissociation of bound molecules in HBS-EP buffer flow was studied. The bound drugs were removed from the chip surface before the next injection by adding 1 M Glycine-HCl at pH 2.5 for 1 min. The association phase was used to quantify the compound-CypA or D interactions. All experiments were performed four times.
On the technique in general: SPR reads the build-up and loss of mass on a sensor chip optically.

The test system of data set [2] is Interleukin-2 (IL-2) production in human T lymphocytes. Put plainly: Interleukin-2 release in Con A-stimulated human T lymphocytes (ELISA). The format is cell-based. The procedure:
Then, cells were stimulated with Concanavalin A (Con A) at 50 μg/mL for 48 h to induce IL-2 release. The amount of IL-2 released to the culture medium was evaluated using Human IL-2 ELISA kit. Experiments were carried out four times.

For data set [3], the system named is human T lymphocytes. Put plainly: Viability of human T lymphocytes (MTT assay, 48 h). As to conditions: for cell toxicity to T-cells: 0.1 μM, in words. The format is cell-based. An excerpt: (§1) The MTT (3-[4,5-dimethylthiazol-2-yl]-2,5-diphenyltetrazoliumbromide) assay was used to determine the cytotoxicity of gracilin derivatives in T lymphocytes (Burton, J. D. Methods Mol. Med., 2005, 110, 69-78) and SH-SY5Y cells and the protective effect of these compounds against H2O2 insult in neuroblastoma cells as previously described (Leiros, M., Alonso, E., Sanchez, J. A., Rateb, M. E., Ebel, R., Houssen, W. E., Jaspars, M., Alfonso, A. and Botana, L. M. ACS Chem. Neurosci., 2014, S, 71-80). Human T lymphocytes were cultured in 24 well plates at the concentration of 2.5×10^6 cells/mL and exposed to different compound concentrations (0.01, 0.1, 1 and 10 μM) added to the culture medium. Human T cells were maintained in the presence of the pure compound at 37° C. in humidified 5% CO2/95% air atmosphere for 48 h.
Saponin was used as cellular death control and its absorbance was subtracted from the other data. After the incubation period with compounds, assay was performed. First cells were centrifuged (1500 rpm, 5 min, 4° C.). The pellets were resuspended in saline solution with MTT (250 μg/mL) and then incubated at 37° C. during 30 min. After washing off excess MTT twice with saline solution, cells were disaggregated with H2O and sonicated for 1 min and the absorbance of the colored formazan salt was measured at 595 nm in a spectrophotometer plate reader. All experiments were performed three times.
A general note: Formazan colour is commonly taken as a measure of viable cells.

The test system of data set [4] is SH-SY5Y cells. Put plainly: Cellular toxicity in SH-SY5Y cells (MTT, 24 h). The format is cell-based. Conditions: SH-SY5Y, 24 h incubation; read-out: IC50 (cellular toxicity).
Source text: as §1
(§2) SH-SY5Y cells were seeded in 96-well plates at a density of 2.5×10^5 cells/mL and allowed to adhere for 24 h. At first, cells were treated only with compounds at concentrations ranging from 10-0.01 μM for 24 h to determine their possible cytotoxic effects. Experiments were carried out three times. For neuroprotective experiments, cells were treated with compounds at non-toxic concentrations (1 μM→1 nM) and 150 μM H2O2 for 6 h. Briefly, cells were washed three times with saline solution and 200 μL of MTT (500 μg/mL) dissolved in saline buffer were added to each well. Following 1 h of incubation at 37° C., the cells were disaggregated with sodium dodecyl sulphate at 5%.
Absorbance of formazan crystals was measured at 595 nm with a spectrophotometer plate reader. Saponin was used as death control and its absorbance was subtracted from the other data. All experiments were performed four times.

For data set [5], the system named is SH-SY5Y cells. Put plainly: Neuroprotection against H2O2 toxicity, cell viability by MTT. The format is cell-based, human. Conditions: 150 μM H2O2 co-treatment 6 h; 0.01, 0.1 and 1 μM. How it is done: as §2, with “5%. Absorbance of formazan crystals was measured at 595 nm with a spectrophotometer plate reader. Saponin was used as death control and its absorbance was subtracted from the other data. All experiments were performed four times.” for “5%.”

Data set [6] relates to SH-SY5Y cells. In words: Intracellular ROS levels (carboxy-H2DCFDA) after H2O2. The format is cell-based, human. Conditions: 150 μM H2O2 co-treatment 6 h. The procedure:
Intracellular levels of reactive oxygen species (ROS) were determined with carboxy-H2DCFDA (5-(and-6)-carboxy-2′,7′-dichlorodihydrofluorescein diacetate). This dye diffuses through the cellular membrane and is converted by cellular esterases to carboxy-H2DCFH (non-fluorescent). When carboxy-H2DCFH is oxidized by ROS, it becomes fluorescent (Halliwell, B. and Whiteman, M. Br. J. Pharmacol., 2004, 142, 231-255). Cells were seeded at a density of 2.5×10^5 cells/mL in 96-well plates and allowed to attach for 24 h. Following treatment with compounds at various concentrations (1 μM→1 nM) and 150 μM H2O2 for 6 h, SH-SY5Y cells were washed twice with serum-free culture medium. Then, carboxy-H2DCFDA 20 μM dissolved in serum-free culture medium was added to each well and the cells were incubated for 1 h at 37° C. After this incubation, the medium with the fluorescent dye was replaced with PBS and the plate was incubated for 30 min at 37° C. Fluorescence was read at 527 nm, with an excitation wavelength of 495 nm. All experiments were performed four times.

T1 sequence (P62937 whole entry): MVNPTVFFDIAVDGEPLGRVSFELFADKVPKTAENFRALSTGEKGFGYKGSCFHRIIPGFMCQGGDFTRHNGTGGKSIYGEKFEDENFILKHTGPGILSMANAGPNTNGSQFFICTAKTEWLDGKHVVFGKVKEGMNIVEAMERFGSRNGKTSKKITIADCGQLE

Consider `CC(=O)OC1CCC(OC(C)=O)O1` (mixture of isomers) [(±)-9, cis- and trans-2,5-tetrahydrofuran-2,5-diyl diacetate], for which the “affinity for CypA (association curves, KD)” value (“affinity for CypA” for short) in data set [1] is on record as “no affinity”. Moreover, the “Inhibition of IL-2 production” value in data set [2] (in words) is listed as “did not inhibit IL-2 production”. The “cell toxicity to T-cells” value in data set [3] was “did not show signs of cell toxicity”.

For `CC(=O)O[C@H]1O[C@@H](OC(C)=O)[C@@H]2CCC(=O)C[C@H]12` [Compound 17, (1S,3R,3aS,7aR)-5-oxooctahydroisobenzofuran-1,3-diyl diacetate], in data set [1], the “affinity for CypA” value is given as “no affinity”. The “Inhibition of IL-2 production” value in data set [2] (in words) is on record as “did not inhibit IL-2 production”. For the same compound, the “cell toxicity to T-cells” value in data set [3] is given as “did not show signs of cell toxicity”.

For the compound `CC(=O)OC1OC(OC(C)=O)[C@@H]2CCC=C[C@H]12` (stereo partly drawn) [Compound 18, (3aR,7aS)-1,3,3a,4,5,7a-hexahydroisobenzofuran-1,3-diyl diacetate], the “affinity for CypA” value in data set [1] was “no affinity”. Also, in data set [2] (in words), the “Inhibition of IL-2 production” value is listed as “did not inhibit IL-2 production”. The “cell toxicity to T-cells” value in data set [3] was “did not show signs of cell toxicity”.

For `CC(=O)O[C@@H]1OC[C@H]2CC(=O)CC[C@H]21` [Compound 24, (1S,3aS,7aR)-5-oxooctahydroisobenzofuran-1-yl acetate], the “immunosuppressive activity (SAR profile, FIG. 2)” value in data set [1] was “inactive”.

`CC1(C2=C[C@@H]3COC(=O)[C@@H]3CC2)CCCCC1` [Compound 26, (3aS,7aR)-5-(1-methylcyclohexyl)-3a,6,7,7a-tetrahydroisobenzofuran-1(3H)-one]: the “immunosuppressive activity (SAR profile, FIG. 2)” value in data set [1] is “inactive”.

As a reminder, the IC50 is the midpoint of a concentration-inhibition curve. As for “(0R,3S,3aR,7aS)-6-((R)-1,3,3-trimethyl-cyclohexyl)-1,3,3a,4,5,7a-hexahydroisobenzofuran-1,3-diyl diacetate [Compound 23d]”, the “fold increase in KD toward CypA compared to gracilin A” value in data set [1] is listed as ~1000 fold. In addition, the “Inhibition of IL-2 production” value in data set [2] (2 h pre-treatment at non-toxic concentration, Con A 50 μg/mL 48 h) is recorded as 46%. Further, the “impact on T-cell viability” value in data set [3] is reported as “no impact on cell viability”. Further, in data set [4], the half-inhibitory concentration (IC50) was 1400 nM.

Consider “(1S,3R,3aS,7aR)-5-((S)-1,3,3-trimethylcyclohexyl)-1,3,3a,4,7,7a-hexahydroisoben-zofuran-1,3-diyl diacetate [Compound 23a]”, for which, in data set [1], the “fold increase in KD toward CypA compared to gracilin A” value is on record as ~1000 fold. Besides, in data set [3], the “decrease in cell viability” value was ~10%. The IC50 in data set [4] turned out to be 1400 nM. Besides, in data set [5], the “protection of cell viability against H2O2 insult” value is on record as “protected cells against H2O2 insult at almost all concentrations”. For the same compound, the ROS levels entry in data set [6] was “diminishing ROS at two or three concentrations”.
